Measurements as given in patent US10442791B2, “DNA-PK inhibitors” (Vertex Pharmaceuticals Incorporated, priority 2012, dated 2019).
pKi: −log10 of the molar value.

Target: DNA-PK (Homo sapiens, UniProt P78527)
Test: DNA-PK inhibition assay (radiometric 33P-ATP kinase assay)
Assay type: biochemical
Settings: 100 μM ATP; competitive tight-binding fit
Method: Compounds were screened for their ability to inhibit DNA-PK kinase using a standard radiometric assay. Briefly, in this kinase assay the transfer of the terminal ^33P-phosphate in ^33P-ATP to a peptide substrate is interrogated. The assay was carried out in 384-well plates to a final volume of 50 μL per well containing approximately 6 nM DNA-PK, 50 mM HEPES (pH 7.5), 10 mM MgCl2, 25 mM NaCl, 0.01% BSA, 1 mM DTT, 10 μg/mL sheared double-stranded DNA (obtained from Sigma), 0.8 mg/mL DNA-PK peptide ([…] obtained from American Peptide), and 100 μM ATP. Accordingly, compounds of the invention were dissolved in DMSO to make 10 mM initial stock solutions. Serial dilutions in DMSO were then made to obtain the final solutions for the assay. A 0.75 μL aliquot of DMSO or inhibitor in DMSO was added to each well, followed by the addition of ATP substrate solution containing ^33P-ATP (obtained from Perkin Elmer). The reaction was started by the addition of DNA-PK, peptide and ds-DNA. After 45 min. the reaction was quenched with 25 μL of 5% phosphoric acid. The reaction mixture was transferred to MultiScreen HTS 384-well PH plates (obtained from Millipore), allowed to bind for one hour, and washed three times with 1% phosphoric acid. Following the addition of 50 μL of Ultima Gold™ high efficiency scintillant (obtained from Perkin Elmer), the samples were counted in a Packard TopCount NXT Microplate Scintillation and Luminescence Counter (Packard BioScience). The Ki values were calculated using Microsoft Excel Solver macros to fit the data to the kinetic model for competitive tight-binding inhibition.

pKi, > 7.52:
CNC(=O)c1c(F)cnc2c([C@H](C)CNc3cc(-c4ccc(N(C)C5CCN(CC(F)F)CC5)nc4)ncn3)cccc12 [Compound 1089]
Cc1ccc(-c2cc(NC[C@@H](C)c3ccnc4c3OCCO4)ncn2)cn1 (single isomer, unassigned) [Compound 443]
COc1ccccc1[C@H](C)CNc1cc(-c2cnc3[nH]ncc3c2)ncn1 [Compound 150]
CNC(=O)c1ccnc2c([C@H](C)CNc3cc(-c4ccc(CC5CCN(CC(F)F)CC5)nc4)ncn3)cccc12 [Compound 1019]
CNC(=O)c1cc(C(F)(F)F)nc2c([C@H](C)CNc3cc(-c4ccc(C)nc4)ncn3)cccc12 [Compound 985]
CNC(=O)c1ccnc2c([C@H](C)CNc3cc(-c4cnc(OC(C)(C)C)nc4)ncn3)ccc(F)c12 [Compound 998]
CNC(=O)c1ccnc2c([C@H](C)CNc3cc(-c4ccc(NC5CCN(CC(F)(F)F)CC5)nc4)ncn3)cccc12 [Compound 1085]
CCOc1ncc(-c2cc(NC[C@@H](C)c3cccc4c(C(=O)NC)c(F)cnc34)ncn2)cn1 [Compound 1030]
CNC(=O)c1ccnc2c([C@H](C)CNc3cc(-c4cnc(NC5CCN(C)CC5)nc4)ncn3)cccc12 [Compound 1078]
Cc1ccc(-c2cc(NC[C@@H](C)c3cccc4c3ncc3c4c(=O)[nH]n3C)ncn2)cn1 [Compound 995]
CNC(=O)c1ncnc2c([C@H](C)CNc3cc(-c4ccc(C(=O)NCCC#N)cc4)ncn3)cccc12 [Compound 1017]
CNC(=O)c1ccnc2c([C@H](C)CNc3cc(-c4ccc(NC5CCN(CC(F)F)CC5)nc4)ncn3)cccc12 [Compound 1083]
CNC(=O)c1ccnc2c([C@H](C)CNc3cc(-c4cnc(COC)nc4)ncn3)ccc(F)c12 [Compound 1000]
CNC(=O)c1ccnc2c([C@H](C)CNc3cc(-c4cnc(CC5CCN(C(C)=O)CC5)nc4)ncn3)cccc12 [Compound 1071]
CNC(=O)c1c(F)cnc2c([C@H](C)CNc3cc(-c4cnc(NCC(F)(F)F)nc4)ncn3)cccc12 [Compound 1033]
CNC(=O)c1ncnc2c([C@H](C)CNc3cc(-c4cnc(OC)nc4)ncn3)cccc12 [Compound 1009]
CNC(=O)c1c(F)cnc2c([C@H](C)CNc3cc(-c4cnc(OC(C)(C)C)nc4)ncn3)cccc12 [Compound 997]
CNC(=O)c1ccnc2c([C@H](C)CNc3cc(-c4ccc(N(C)C5CCN(CC(F)(F)F)CC5)nc4)ncn3)cccc12 [Compound 1042]
CNC(=O)c1ncnc2c([C@H](C)CNc3cc(-c4ccc(C(=O)NCCC#N)nc4)ncn3)cccc12 [Compound 1016]
CNC(=O)c1c(F)cnc2c([C@H](C)CNc3cc(-c4ccc(CC5CCN(C(C)=O)CC5)nc4)ncn3)cccc12 [Compound 1008]
CNC(=O)c1ccnc2c([C@H](C)CNc3cc(-c4cnc(NC5CCN(CC(F)(F)F)CC5)nc4)ncn3)cccc12 [Compound 1080]
COc1ccc(CCNc2cc(-c3ccc4ncccc4c3)ncn2)c(OC)c1 [Compound 28]
CNC(=O)c1ccnc2c([C@H](C)CNc3cc(-c4ccc(C5(O)COC5)nc4)ncn3)ccc(F)c12 [Compound 1069]
CNC(=O)c1c(F)cnc2c([C@H](C)CNc3cc(-c4cnc(N(C)C5CCN(CC(F)F)CC5)nc4)ncn3)cccc12 [Compound 1062]
CNC(=O)CNc1ncc(-c2cc(NC[C@@H](C)c3cccc4c(C(=O)NC)c(F)cnc34)ncn2)cn1 [Compound 1075]
